Measurements as given in US20100168112A1, “2-Substituted and 4-substituted aryl nitrone compounds” (RENOVIS, INC., priority 2004, published 2010).

System: STZ-diabetic rats
Experiment: Diabetic neuropathy, mechanical allodynia (von Frey filaments)
Format: in vivo, rat
Details: 25 mg/kg, p.o., bid, x49 d
Description: Adult male Sprague Dawley (SD) rats weighing 250-300 gm (Charles River Laboratories, San Diego, Calif.) were used. The animal room was lighted artificially at a 12-hr light-dark cycle (from 7:00 A.M. to 7:00 P.M.) with water and food supply ad libitum. Animals were allocated randomly into groups. Forty-nine (49) days prior to the behavioral tests, rats received a bolus injection of STZ (75 mg/kg, i.v.). STZ was dissolved in 0.1 M sodium citrate buffer, pH 4.5 solution, at the concentration of 75 mg/ml. To ensure the development of hyperglycemia, their non-fasted levels of glucose in whole blood, obtained via tail veins, were evaluated, using a glocometer (Accucheck®, Roche Diagnostics, Palo Alto, Calif.), once a week. Animals failing to show hyperglycemic conditions (i.e., whole blood glucose>120 mg/dL) were removed from the study. Diabetic rats were treated orally with Compound 62 (5 mg/kg or 25 mg/kg, both bid) or vehicle (1 ml/kg, bid), starting the date of STZ-injection. Compound 62 was dissolved in vehicle, which is composed of 96% of 0.5% CMC and 4% of 10% Tween 80. As a control, a group of naive rats received oral Compound 62 (25 mg/kg, bid) or vehicle (1 ml/kg, bid) treatment. Each group had >12 rats. […]

CC(C)(C)/[N+]([O-])=C/c1ccc(S(C)(=O)=O)cc1 [Compound 62, N-tert-Butyl-C-[4-(methanesulfonyl)phenyl]nitrone]
effect on PWT / reversal of allodynia vs vehicle (in words): significantly enhanced the PWT | PWT (von Frey), mechanical allodynia (mean ± SEM): 6.08 ± 0.94 GRAMS
